In patent US8691800B2, “Quinoline derivatives as antibacterial agents” (Janssen Pharmaceutica N.V., priority 2005, dated 2014):
In brackets after ≈: the same amount, converted by molar mass.

What was measured:
[1] = tested on: Bacillus subtilis (ATCC43639); test: Microtitre plate assay, IC90 for bacterial growth; assay type: cell-based; conditions: for IC90 BSU 43639: 90% inhibitory concentration for bacterial growth; for IC90: Bacillus subtilis, ATCC43639, 90% inhibitory concentration for bacterial growth, read-out: IC90 BSU 43639
Method: (§1) The bacteria used in this study were grown overnight in flasks containing 100 ml Mueller-Hinton Broth (Becton Dickinson—cat. no. 275730) in sterile de-ionized water, with shaking, at 37° C. Stocks (0.5 ml/tube) were stored at 70° C. until use. Bacteria titrations were performed in microtiter plates and colony forming units (CFUs) were determined. In general, an inoculum level of approximately 100 CFUs was used for susceptibility testing.
(§2) Anti bacterial Susceptibility Testing: IC90 Determination
(§3) Flat-bottom, sterile 96-well plastic microtiter plates were filled with 180 μl of sterile deionized water, supplemented with 0.25% BSA. Subsequently, stock solutions (7.8× final test concentration) of compounds were added in 45 μl volumes in column 2. Serial five-fold dilutions (45 μl in 180 μl) were made directly in the microtiter plates from column 2 to reach column 11. Untreated control samples with (column 1) and without (column 12) inoculum were included in each microtiter plate. Depending on the bacteria type, approximately 10 to 60 CFU per well of bacteria inoculum (100 TCID50), in a volume of 100 μl in 2.8× Mueller-Hinton broth medium, was added to the rows A to H, except column 12. The same volume of broth medium without inoculum was added to column 12 in row A to H. The cultures were incubated at 37° C. for 24 hours under a normal atmosphere (incubator with open air valve and continuous ventilation). At the end of incubation, one day after inoculation, the bacterial growth was quantitated fluorometrically. Therefore resazurin (0.6 mg/ml) was added in a volume of 20 μl to all wells 3 hours after inoculation, and the plates were re-incubated overnight. A change in colour from blue to pink indicated the growth of bacteria. The fluorescence was read in a computer-controlled fluorometer (Cytofluor Biosearch) at an excitation wavelength of 530 nm and an emission wavelength of 590 nm. The % growth inhibition achieved by the compounds was calculated according to standard methods. The IC90 (expressed in μg/ml) was defined as the 90% inhibitory concentration for bacterial growth.

[2] = tested on: Enterococcus faecalis (ATCC29212); test: Microtitre plate assay, IC90 for bacterial growth; assay type: cell-based; conditions: for IC90 EFA 29212: 90% inhibitory concentration for bacterial growth; for IC90: Enterococcus faecalis, ATCC29212, 90% inhibitory concentration for bacterial growth, read-out: IC90 EFA 29212
Method: as §1, §2, §3

[3] = tested on: Listeria monocytogenes (ATCC49594); test: Microtitre plate assay, IC90 for bacterial growth; assay type: cell-based; conditions: for IC90 LMO 49594: 90% inhibitory concentration for bacterial growth; for IC90: Listeria monocytogenes, ATCC49594, 90% inhibitory concentration for bacterial growth, read-out: IC90 LMO 49594
Method: as §1, §2, §3

[4] = tested on: Pseudomonas aeruginosa (ATCC27853); test: Microtitre plate assay, IC90 for bacterial growth; assay type: cell-based; conditions: for IC90 PAE 27853: 90% inhibitory concentration for bacterial growth; for IC90: Pseudomonas aeruginosa, ATCC27853, 90% inhibitory concentration for bacterial growth, read-out: IC90 PAE 27853
Method: as §1, §2, §3

[5] = tested on: Staphylococcus aureus (ATCC25923); test: Microtitre plate assay, IC90 for bacterial growth; assay type: cell-based; conditions: for IC90 STA 25923: 90% inhibitory concentration for bacterial growth; for IC90: Staphylococcus aureus, ATCC25923, 90% inhibitory concentration for bacterial growth, read-out: IC90 STA 25923
Method: as §1, §2, §3

[6] = tested on: Staphylococcus aureus (ATCC29213); test: Microtitre plate assay, IC90 for bacterial growth; assay type: cell-based; conditions: 90% inhibitory concentration for bacterial growth, 24 hours at 37° C., resazurin; for IC90: Staphylococcus aureus, ATCC29213, 24 h, read-out: IC90 STA 29213
Method: as §1, §2, §3

[7] = tested on: Streptococcus pneumoniae (ATCC6305); test: Microtitre plate assay, IC90 for bacterial growth; assay type: cell-based; conditions: for IC90 SPN 6305: 90% inhibitory concentration for bacterial growth; for IC90: Streptococcus pneumoniae, ATCC6305, 90% inhibitory concentration for bacterial growth, read-out: IC90 SPN 6305
Method: as §1, §2, §3

[8] = tested on: Streptococcus pyogens (ATCC8668); test: Microtitre plate assay, IC90 for bacterial growth; assay type: cell-based; conditions: for IC90 SPY 8668: 90% inhibitory concentration for bacterial growth; for IC90: Streptococcus, ATCC8668, 90% inhibitory concentration for bacterial growth, read-out: IC90 SPY 8668
Method: as §1, §2, §3

[9] = tested on: methicilline resistant Staphylococcus aureus (MRSA) (a clinical isolate from the University of Antwerp); test: Microtitre plate assay, IC90 for bacterial growth; assay type: cell-based; conditions: 90% inhibitory concentration for bacterial growth; for IC90: Staphylococcus aureus, MRSA, read-out: IC90 STA RMETHIC
Method: as §1, §2, §3

[10] = tested on: Streptococcus mutans (ATCC33402); test: Microtitre plate assay, IC90 for bacterial growth; assay type: cell-based; conditions: Streptococcus mutans, ATCC33402, 90% inhibitory concentration for bacterial growth, read-out: IC90 SMU 33402
Method: as §1, §2, §3

SMILES	IC90 BSU 43639 [1] [µg/mL]	IC90 EFA 29212 [2] [µg/mL]	IC90 LMO 49594 [3] [µg/mL]	IC90 PAE 27853 [4] [µg/mL]	IC90 STA 25923 [5] [µg/mL]	IC90 STA 29213 [6] [µg/mL]	IC90 SPN 6305 [7] [µg/mL]	IC90 SPY 8668 [8] [µg/mL]	IC90 STA RMETHIC [9] [µg/mL]	IC90 [10] [µg/mL]	IC90 [7] [µg/mL]	IC90 [8] [µg/mL]	IC90 [9] [µg/mL]	IC90 [1] [µg/mL]	IC90 [2] [µg/mL]	IC90 [3] [µg/mL]	IC90 [4] [µg/mL]	IC90 [5] [µg/mL]	IC90 [6] [µg/mL]	melting point [°C]
COc1nc2ccc(-c3ccccc3)cc2cc1C(c1ccccc1)C1(c2cccc3ccccc23)CCN(C)CO1 (single isomer, unassigned) [Compound 2]	55.1 (≈ 100 µM)	55.1 (≈ 100 µM)	55.1 (≈ 100 µM)	55.1 (≈ 100 µM)	55.1 (≈ 100 µM)	55.1 (≈ 100 µM)	5.5 (≈ 9.99 µM)	55.1 (≈ 100 µM)	55.1 (≈ 100 µM)											
COc1nc2ccc(Cl)cc2cc1C(c1ccccc1)C1(c2cccc3ccccc23)CCN(C)CO1 (single isomer, unassigned) [Compound 3]						12.8 (≈ 25.1 µM)														
COc1ccc2nc(OC)c(C(c3ccccc3)C3(c4cccc5ccccc45)CCN(C)CO3)cc2c1 (single isomer, unassigned) [Compound 4]	50.5 (≈ 100 µM)	50.5 (≈ 100 µM)	25.3 (≈ 50.1 µM)	50.5 (≈ 100 µM)	50.5 (≈ 100 µM)	50.5 (≈ 100 µM)				20.1 (≈ 39.8 µM)	1 (≈ 1.98 µM)	20.1 (≈ 39.8 µM)	50.5 (≈ 100 µM)							
COc1nc2ccc(C)cc2cc1C(c1ccccc1)C1(c2cccc3ccccc23)CCN(C)CO1 (single isomer, unassigned) [Compound 5]							10.9 (≈ 22.3 µM)	8.7 (≈ 17.8 µM)		24.5 (≈ 50.1 µM)			48.9 (≈ 100 µM)	48.9 (≈ 100 µM)	48.9 (≈ 100 µM)	48.9 (≈ 100 µM)	48.9 (≈ 100 µM)	48.9 (≈ 100 µM)	48.9 (≈ 100 µM)	
COc1nc2ccc(-c3ccco3)cc2cc1C(c1ccccc1)C1(c2cccc3ccccc23)CCN(C)CO1 (single isomer, unassigned) [Compound 6]							2.7 (≈ 4.99 µM)		54.1 (≈ 100 µM)			13.6 (≈ 25.2 µM)		13.6 (≈ 25.2 µM)	13.6 (≈ 25.2 µM)		13.6 (≈ 25.2 µM)	13.6 (≈ 25.2 µM)	13.6 (≈ 25.2 µM)	
COc1nc2ccc(Br)cc2cc1C(c1ccccc1)C1(c2cccc3ccccc23)CCN(C)CO1 (single isomer, unassigned) [Compound 7]		13.9 (≈ 25.1 µM)		13.9 (≈ 25.1 µM)		13.9 (≈ 25.1 µM)	13.9 (≈ 25.1 µM)	13.9 (≈ 25.1 µM)												108
COc1nc2ccc(-c3ccccc3)cc2cc1C(c1ccccc1)C1(c2cccc3ccccc23)CCN(C)CO1 (single isomer, unassigned) [Compound 9]											4.9 (≈ 8.9 µM)	55.1 (≈ 100 µM)	55.1 (≈ 100 µM)	55.1 (≈ 100 µM)	55.1 (≈ 100 µM)	55.1 (≈ 100 µM)	55.1 (≈ 100 µM)	55.1 (≈ 100 µM)	55.1 (≈ 100 µM)	
COc1nc2ccc(-c3ccco3)cc2cc1C(c1ccccc1)C1(c2cccc3ccccc23)CCN(C)CO1 (single isomer, unassigned) [Compound 12]		13.6 (≈ 25.2 µM)		13.6 (≈ 25.2 µM)	13.6 (≈ 25.2 µM)	13.6 (≈ 25.2 µM)	12.1 (≈ 22.4 µM)	10.8 (≈ 20 µM)	13.6 (≈ 25.2 µM)	10.8 (≈ 20 µM)						13.6 (≈ 25.2 µM)				
COc1nc2ccc(Br)cc2cc1C(c1ccc(Cl)cc1)C1(c2cccc3ccccc23)CCN(C)CO1 (single isomer, unassigned) [Compound 13]											13.2 (≈ 22.5 µM)	14.8 (≈ 25.2 µM)			14.8 (≈ 25.2 µM)		14.8 (≈ 25.2 µM)		14.8 (≈ 25.2 µM)	
COc1nc2ccc(Br)cc2cc1C(c1ccccc1)C1(c2cccc3ccccc23)CC[N+](C)(C)CO1.[I-] (single isomer, unassigned) [Compound 17]		1.8		2.0		1.8	1.8	1.8	2.3											245
COc1nc2ccc(Br)cc2cc1C(c1ccccc1)C1(c2cccc3ccccc23)CC[N+](C)(C)CO1.[I-] (single isomer, unassigned) [Compound 18]											1.8	1.8	2.3		1.8		2		2.3	228
CC[N+]1(C)CCC(c2cccc3ccccc23)(C(c2ccccc2)c2cc3cc(Br)ccc3nc2OC)OC1.[I-] (single isomer, unassigned) [Compound 19]							0.5					1.8	2.3		1.8		3.7		0.4	236
CC[N+]1(C)CCC(c2cccc3ccccc23)(C(c2ccccc2)c2cc3cc(Br)ccc3nc2OC)OC1.[I-] (single isomer, unassigned) [Compound 20]		1.8		4.6		0.5	1.8	2.1	2.3											215
COc1nc2ccc(Br)cc2cc1C(c1ccc(Cl)cc1)C1(c2cccc3ccccc23)CCN(C)CO1 (single isomer, unassigned) [Compound 21]		14.8 (≈ 25.2 µM)		14.8 (≈ 25.2 µM)		14.8 (≈ 25.2 µM)	14.8 (≈ 25.2 µM)	14.8 (≈ 25.2 µM)												201
